From patent publication US11674967B2, “Method of identifying potential inhibitors of APO TNFα trimers” (UCB BIOPHARMA SRL, priority 2015, dated 2023)

Experiments:
[1] = target: T1, human TNFα trimer (Homo sapiens, UniProt P01375); assay: RMSD of crystal structure of compound-bound TNFα trimer to Reference Structure Compound 34; settings: Cα atoms of β-sheet residues, all three subunits, PyMOL
T1 construct: His6Smt-tag (N, cleaved yes); made in house; host or cells: E. coli (vector pEMB54)
Description: Cells were pre-cultured at 37° C. in rich media, induced with the addition of 0.1% arabinose and allowed to express overnight at 25° C. in vector pEMB54. This vector introduces a cleavable N-terminal His6Smt-tag. The cells were lysed and purified by Ni-NTA chelate chromatography. The fusion protein was eluted with buffer containing imidazole and cleaved by the addition of protease. The final cleaved TNFα protein was purified by a subtractive Ni chelate chromatography step to remove the fusion tag and further purified by size exclusion chromatography to remove the remaining impurities. The final TNFα product was typically concentrated to 20.0 mg/ml and flash frozen in liquid nitrogen.
Purified human TNF[…] (20.0 mg/ml, VC 2043) was diluted to 4-7 mg/ml in 10 mM HEPES pH 7.5, 150 mM NaCl buffer followed by overnight incubation at 4° C. with 0.3-0.5 mM compound (1-2 molar excess). The TNF[…] compound complexes were crystallized by sitting drop vapor diffusion by mixing 0.5 μl of complex with 0.5 μl of 21.44% PEG 3350, 100 mM Tris, pH 9.0 (UCB1474433); or 22.0% PEG 3350, 100 mM glycine, 100 mM Tris, pH 8.5 (UCB1480595); or 25.6% PEG 3350, 100 mM Tris, pH 8.3, 3% xylitol (UCB5143079) or other formulation with varying precipitant concentration or additives over 100 μl of the same crystallization solution. Other formulations for other compounds include a range of PEG 3350 of 8-28%. Other PEG-like additives include PEG 1000 (8-18%) or PEG 2000 (10-13%). Other additives include MPD (5-13%) or 200 mM NaCl. Other buffers include 100 mM Hepes (pH 7-8), 100 mM Tris or bis-Tris (pH 6.7-9.0). Other non-PEG 3350 crystallization solutions consist of PEG 2000 (14-19%), 100 mM Hepes, pH 8, 25 mM arginine; or 17% PEG 10000, 200 mM ammonium acetate, 100 mM bis-Tris, pH 5.5; or 30% PEG 2000 MME, 100 mM sodium acetate, 100 mM Mes, pH 6.5.
Crystals were briefly soaked in ethylene glycol and/or vitrified directly in liquid nitrogen for data collection.
X-ray diffraction data were collected from a synchrotron source at a wavelength, most frequently, of 0.976484 Å and recorded on CCD detector. […] The structure of the human TNF[…] (VC 2043) complexed with compound was solved by molecular replacement using Phaser with input model of 1TNF. […] Iterative manual model building using Coot (Emsley and Cowtan, 2004) and Refmac (Murshudov et al., 1997) continued until R and Rfree converged. […] The resolution of the structures was most frequently around 2.15 Å.
Root mean squared deviation (RMSD) calculations were carried out to ascertain the distance of each of the crystal structures of distorted TNFα trimer to a reference structure.
RMSD calculations were done using the program PyMOL (www.pymol.org). In this example version 1.7. was used. The cmd.rms PyMOL command was used with defined pairs of atoms. The atoms used were the backbone Ca's of certain residues within the β-strands of TNFα. The residue numbers used are shown below:
These residue numbers are those within the published structure of TNFα with PDB code 1A8M and within the distorted TNFα trimer structures of this invention. The residue numbers are also according to the sequence of SEQ ID NO:36. The residues in each of the three chains with the TNFα structures, (labelled A, B, and C according to our instructions) were used.
The command cmd.rms was used with the following arguments:
rms=cmd.rms(“(moving)”, “(target)”, matchmaker=4, quiet=0, cycles=0)
where “(moving)” is the selection of atoms in a given TNFα structure and “(target)” is the selection of equivalent atoms within the reference structure.
The RMSD was calculated for each structure against all others. The “representative structure” or “Reference Structure” was chosen to be the one with the lowest sum RMSD to all others—the structure “Compound 34” or “Compound34.pdb”.
Reference Structure (Compound 34) and Query Structure (Compound 64) were overlaid (see FIG. 17 with Reference Structure emboldened) by: • 1. […]

[2] = system: TNFα-induced NF-κB activation; assay: HEK-Blue CD40L NF-κB reporter gene assay, TNFα stimulus; assay type: cell-based; settings: TNFα 0.5 ng/mL
Description: (§1) Stimulation of HEK-293 cells by TNF-alpha leads to activation of the NF-kB pathway. The reporter cell line used to determine TNF alpha activity was purchased from Invivogen. HEK-Blue™ CD40L, is a stable transfectant expressing SEAP (secreted alkaline phosphatase) under the control of the IFN-beta minimal promoter fused to 5 NF-kB binding sites. Secretion of SEAP by these cells is stimulated in a concentration dependent manner by TNF-alpha (0.5 ng/ml), IL-1-beta (0.5 ng/ml) and an activating anti-human TNFR1 antibody (300 ng/ml).
Compounds were diluted from 10 mM DMSO stocks (final assay concentration 0.3%) to generate a 10 point 3 fold serial dilution curve (30,000 nM to 2 nM final concentration). They were mixed with stimulating ligand for 1 hour in a 384 well microtitre plate. […] SEAP activity was determined in the supernatant using the colorimetric substrate Quanti-Blue™ (Invivogen).
(§2) Percentage inhibitions for compound dilutions were calculated between a DMSO control and maximum inhibition (by excess control compound) and an IC50 calculated using xlfit (4 parameter logistic model) in Activity Base.
C87 was preincubated with TNFα for 1 hour prior to the addition to HEK-293 cells stably transfected with SEAP under the control of NFκB. […] The assay was incubated overnight before inhibition was measured compared to 100% blocking by a control compound. […]

[3] = system: IL-1β; assay: HEK-Blue NF-κB reporter gene counterscreen, IL-1β stimulus; assay type: cell-based; settings: IL-1β 0.5 ng/mL
Description: as §1
Compounds were diluted from 10 mM DMSO stocks (final assay concentration 0.3%) to generate a 10 point 3 fold serial dilution curve (30,000 nM to 2 nM final concentration). They were mixed with stimulating ligand for 1 hour in a 384 well microtitre plate. Freshly thawed and washed cells were added to the compound/stimulus mixture and further incubated for 18 hours. SEAP activity was determined in the supernatant using the colorimetric substrate Quanti-Blue™ (Invivogen).
as §2
The specific activity of the compound of formula (15) against the TNF-alpha response was compared to that seen with the counterscreens (IL-1beta and anti-human TNFR1 antibody).

T1 sequence (P01375 with tags, fused parts or gaps): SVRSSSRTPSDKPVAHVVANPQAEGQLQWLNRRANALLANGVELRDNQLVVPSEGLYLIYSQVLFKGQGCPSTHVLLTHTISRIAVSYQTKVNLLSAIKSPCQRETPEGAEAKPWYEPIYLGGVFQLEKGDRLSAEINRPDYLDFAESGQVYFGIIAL

| Compound | RMSD (Å) with Compound 34 [1] | IC50 [2] | inhibition of activation of NF-κB by IL-1β [3] |
| --- | --- | --- | --- |
| Cc1ccc(C)c(Cn2c(C(O)c3ccncc3)nc3ccccc32)c1 (stereo not shown) [Compound 3] | 0.33 Å |  |  |
| Cc1ccc(C)c(Cn2c(C(O)c3ccncc3)nc3ccc(-c4cnn(C)c4)cc32)c1 (stereo not shown) [Compound 15] | 0.24 Å | 113 nM | did not inhibit |
